Values joined by “and” are separate entries in the source; they are usually repeats but may differ in a detail not shown here. Equal values may be shown once.
Legend:
Experiment in all cases: radiometric filter-binding kinase assay, Kinase HotSpot
Details in all cases: compound 0.5 µM; ATP 10 µM
CAMKK2 (human) = CAMKK2 (human) (UniProt Q96RR4)
ROS1 (human) = ROS1 (human) (UniProt P08922)
CAMKK1 (human) = CAMKK1 (human) (UniProt Q8N5S9)
HIPK1 (human) = HIPK1 (human) (UniProt Q86Z02)
MAPK11 (human) = MAPK11 (human) (UniProt Q15759)
CSNK1D (human) = CSNK1D (human) (UniProt P48730)
SGK2 (human) = SGK2 (human) (UniProt Q9HBY8)
LYN (human) = LYN (human) (UniProt P07948)
NEK9 (human) = NEK9 (human) (UniProt Q8TD19)
SLK (human) = SLK (human) (UniProt Q9H2G2)
CAMK1D (human) = CAMK1D (human) (UniProt Q8IU85)
ROCK2 (human) = ROCK2 (human) (UniProt O75116)
PDGFRB (human) = PDGFRB (human) (UniProt P09619)
EPHA2 (human) = EPHA2 (human) (UniProt P29317)
SRMS (human) = SRMS (human) (UniProt Q9H3Y6)
LTK (human) = LTK (human) (UniProt P29376)
PRKCA (human) = PRKCA (human) (UniProt P17252)
PLK1 (human) = PLK1 (human) (UniProt P53350)
PRKG2 (human) = PRKG2 (human) (UniProt Q13237)
PRKCH (human) = PRKCH (human) (UniProt P24723)
RPS6KB1 (human) = RPS6KB1 (human) (UniProt P23443)
MAPK14 (human) = MAPK14 (human) (UniProt Q16539)
MST1R (human) = MST1R (human) (UniProt Q04912)
TBK1 (human) = TBK1 (human) (UniProt Q9UHD2)
PAK3 (human) = PAK3 (human) (UniProt O75914)
CSNK2A1 (human) = CSNK2A1 (human) (UniProt P68400)
RPS6KA6 KD1 KD2 (human) = RPS6KA6 KD1 KD2 (human) (UniProt Q9UK32)
PIM3 (human) = PIM3 (human) (UniProt Q86V86)
SYK (human) = SYK (human) (UniProt P43405)
NEK11 (human) = NEK11 (human) (UniProt Q8NG66)
GRK6 (human) = GRK6 (human) (UniProt P43250)
CSNK1G2 (human) = CSNK1G2 (human) (UniProt P78368)
ULK2 (human) = ULK2 (human) (UniProt Q8IYT8)
TGFBR1 (human) = TGFBR1 (human) (UniProt P36897)
CAMK1G (human) = CAMK1G (human) (UniProt Q96NX5)
TAOK3 (human) = TAOK3 (human) (UniProt Q9H2K8)
DYRK4 (human) = DYRK4 (human) (UniProt Q9NR20)
PAK6 (human) = PAK6 (human) (UniProt Q9NQU5)
LIMK1 (human) = LIMK1 (human) (UniProt P53667)
NEK1 (human) = NEK1 (human) (UniProt Q96PY6)
[1] = target: TYK2 JH1 catalytic (human) (UniProt P29597)
FGFR3 (human) = FGFR3 (human) (UniProt P22607)

Chain of SLK (human) (Q9H2G2 whole entry, looked up): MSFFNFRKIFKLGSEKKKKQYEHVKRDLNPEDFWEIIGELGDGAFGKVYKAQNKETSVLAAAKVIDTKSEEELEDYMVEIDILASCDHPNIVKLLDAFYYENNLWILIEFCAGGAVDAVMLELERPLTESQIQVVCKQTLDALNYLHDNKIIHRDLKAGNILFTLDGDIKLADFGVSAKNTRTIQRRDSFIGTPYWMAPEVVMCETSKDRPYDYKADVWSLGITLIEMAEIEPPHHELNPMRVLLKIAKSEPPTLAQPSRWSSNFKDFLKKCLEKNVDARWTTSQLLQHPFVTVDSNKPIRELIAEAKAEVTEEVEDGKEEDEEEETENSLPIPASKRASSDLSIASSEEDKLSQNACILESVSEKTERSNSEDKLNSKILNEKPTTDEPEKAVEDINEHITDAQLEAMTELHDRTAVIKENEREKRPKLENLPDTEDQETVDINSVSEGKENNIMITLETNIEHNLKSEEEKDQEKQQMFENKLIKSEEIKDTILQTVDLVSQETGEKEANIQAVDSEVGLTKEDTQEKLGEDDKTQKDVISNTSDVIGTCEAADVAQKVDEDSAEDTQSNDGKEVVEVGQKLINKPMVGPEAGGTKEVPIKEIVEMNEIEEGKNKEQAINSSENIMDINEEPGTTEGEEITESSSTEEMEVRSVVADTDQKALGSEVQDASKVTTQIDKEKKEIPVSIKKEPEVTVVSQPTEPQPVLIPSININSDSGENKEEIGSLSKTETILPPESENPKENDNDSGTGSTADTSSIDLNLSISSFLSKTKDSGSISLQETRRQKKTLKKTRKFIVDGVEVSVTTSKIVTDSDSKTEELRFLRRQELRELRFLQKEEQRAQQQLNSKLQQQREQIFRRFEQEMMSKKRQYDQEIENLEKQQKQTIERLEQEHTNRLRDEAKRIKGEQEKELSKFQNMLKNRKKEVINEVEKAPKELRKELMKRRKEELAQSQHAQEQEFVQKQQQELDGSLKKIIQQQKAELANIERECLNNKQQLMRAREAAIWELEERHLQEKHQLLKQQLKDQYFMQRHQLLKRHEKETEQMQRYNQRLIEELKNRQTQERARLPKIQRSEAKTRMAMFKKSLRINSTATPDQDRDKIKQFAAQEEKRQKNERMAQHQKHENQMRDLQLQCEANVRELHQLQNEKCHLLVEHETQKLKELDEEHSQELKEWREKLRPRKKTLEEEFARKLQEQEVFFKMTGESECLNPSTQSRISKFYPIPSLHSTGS
Chain of ULK2 (human) (Q8IYT8 whole entry, looked up): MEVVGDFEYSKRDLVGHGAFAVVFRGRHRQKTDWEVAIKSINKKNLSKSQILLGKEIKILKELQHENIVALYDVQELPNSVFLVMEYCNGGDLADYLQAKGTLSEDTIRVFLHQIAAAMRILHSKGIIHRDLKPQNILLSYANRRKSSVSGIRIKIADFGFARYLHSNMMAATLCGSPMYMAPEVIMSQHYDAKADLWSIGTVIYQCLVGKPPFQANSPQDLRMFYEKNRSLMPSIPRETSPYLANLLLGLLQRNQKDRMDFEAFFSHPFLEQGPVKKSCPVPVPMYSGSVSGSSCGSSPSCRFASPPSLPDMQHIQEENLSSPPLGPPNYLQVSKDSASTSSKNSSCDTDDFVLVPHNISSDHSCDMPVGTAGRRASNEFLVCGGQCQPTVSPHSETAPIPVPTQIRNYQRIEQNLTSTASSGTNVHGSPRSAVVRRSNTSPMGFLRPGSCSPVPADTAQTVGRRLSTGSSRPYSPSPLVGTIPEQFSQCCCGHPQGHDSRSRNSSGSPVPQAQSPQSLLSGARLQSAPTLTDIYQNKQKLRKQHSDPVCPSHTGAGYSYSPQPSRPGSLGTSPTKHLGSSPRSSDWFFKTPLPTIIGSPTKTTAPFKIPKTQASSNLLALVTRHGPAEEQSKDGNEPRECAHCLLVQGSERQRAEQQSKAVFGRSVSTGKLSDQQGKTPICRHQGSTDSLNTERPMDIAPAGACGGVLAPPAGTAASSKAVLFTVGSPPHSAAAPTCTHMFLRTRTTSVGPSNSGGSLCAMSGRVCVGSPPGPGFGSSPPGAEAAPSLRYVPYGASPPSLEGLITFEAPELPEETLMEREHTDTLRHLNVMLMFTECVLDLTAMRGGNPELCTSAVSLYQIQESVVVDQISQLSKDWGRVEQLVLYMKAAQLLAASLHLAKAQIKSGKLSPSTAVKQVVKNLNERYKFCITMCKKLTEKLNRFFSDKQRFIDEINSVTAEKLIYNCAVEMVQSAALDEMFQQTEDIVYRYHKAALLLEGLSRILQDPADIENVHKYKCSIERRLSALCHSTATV
Chain of ROS1 (human) (P08922 whole entry, looked up): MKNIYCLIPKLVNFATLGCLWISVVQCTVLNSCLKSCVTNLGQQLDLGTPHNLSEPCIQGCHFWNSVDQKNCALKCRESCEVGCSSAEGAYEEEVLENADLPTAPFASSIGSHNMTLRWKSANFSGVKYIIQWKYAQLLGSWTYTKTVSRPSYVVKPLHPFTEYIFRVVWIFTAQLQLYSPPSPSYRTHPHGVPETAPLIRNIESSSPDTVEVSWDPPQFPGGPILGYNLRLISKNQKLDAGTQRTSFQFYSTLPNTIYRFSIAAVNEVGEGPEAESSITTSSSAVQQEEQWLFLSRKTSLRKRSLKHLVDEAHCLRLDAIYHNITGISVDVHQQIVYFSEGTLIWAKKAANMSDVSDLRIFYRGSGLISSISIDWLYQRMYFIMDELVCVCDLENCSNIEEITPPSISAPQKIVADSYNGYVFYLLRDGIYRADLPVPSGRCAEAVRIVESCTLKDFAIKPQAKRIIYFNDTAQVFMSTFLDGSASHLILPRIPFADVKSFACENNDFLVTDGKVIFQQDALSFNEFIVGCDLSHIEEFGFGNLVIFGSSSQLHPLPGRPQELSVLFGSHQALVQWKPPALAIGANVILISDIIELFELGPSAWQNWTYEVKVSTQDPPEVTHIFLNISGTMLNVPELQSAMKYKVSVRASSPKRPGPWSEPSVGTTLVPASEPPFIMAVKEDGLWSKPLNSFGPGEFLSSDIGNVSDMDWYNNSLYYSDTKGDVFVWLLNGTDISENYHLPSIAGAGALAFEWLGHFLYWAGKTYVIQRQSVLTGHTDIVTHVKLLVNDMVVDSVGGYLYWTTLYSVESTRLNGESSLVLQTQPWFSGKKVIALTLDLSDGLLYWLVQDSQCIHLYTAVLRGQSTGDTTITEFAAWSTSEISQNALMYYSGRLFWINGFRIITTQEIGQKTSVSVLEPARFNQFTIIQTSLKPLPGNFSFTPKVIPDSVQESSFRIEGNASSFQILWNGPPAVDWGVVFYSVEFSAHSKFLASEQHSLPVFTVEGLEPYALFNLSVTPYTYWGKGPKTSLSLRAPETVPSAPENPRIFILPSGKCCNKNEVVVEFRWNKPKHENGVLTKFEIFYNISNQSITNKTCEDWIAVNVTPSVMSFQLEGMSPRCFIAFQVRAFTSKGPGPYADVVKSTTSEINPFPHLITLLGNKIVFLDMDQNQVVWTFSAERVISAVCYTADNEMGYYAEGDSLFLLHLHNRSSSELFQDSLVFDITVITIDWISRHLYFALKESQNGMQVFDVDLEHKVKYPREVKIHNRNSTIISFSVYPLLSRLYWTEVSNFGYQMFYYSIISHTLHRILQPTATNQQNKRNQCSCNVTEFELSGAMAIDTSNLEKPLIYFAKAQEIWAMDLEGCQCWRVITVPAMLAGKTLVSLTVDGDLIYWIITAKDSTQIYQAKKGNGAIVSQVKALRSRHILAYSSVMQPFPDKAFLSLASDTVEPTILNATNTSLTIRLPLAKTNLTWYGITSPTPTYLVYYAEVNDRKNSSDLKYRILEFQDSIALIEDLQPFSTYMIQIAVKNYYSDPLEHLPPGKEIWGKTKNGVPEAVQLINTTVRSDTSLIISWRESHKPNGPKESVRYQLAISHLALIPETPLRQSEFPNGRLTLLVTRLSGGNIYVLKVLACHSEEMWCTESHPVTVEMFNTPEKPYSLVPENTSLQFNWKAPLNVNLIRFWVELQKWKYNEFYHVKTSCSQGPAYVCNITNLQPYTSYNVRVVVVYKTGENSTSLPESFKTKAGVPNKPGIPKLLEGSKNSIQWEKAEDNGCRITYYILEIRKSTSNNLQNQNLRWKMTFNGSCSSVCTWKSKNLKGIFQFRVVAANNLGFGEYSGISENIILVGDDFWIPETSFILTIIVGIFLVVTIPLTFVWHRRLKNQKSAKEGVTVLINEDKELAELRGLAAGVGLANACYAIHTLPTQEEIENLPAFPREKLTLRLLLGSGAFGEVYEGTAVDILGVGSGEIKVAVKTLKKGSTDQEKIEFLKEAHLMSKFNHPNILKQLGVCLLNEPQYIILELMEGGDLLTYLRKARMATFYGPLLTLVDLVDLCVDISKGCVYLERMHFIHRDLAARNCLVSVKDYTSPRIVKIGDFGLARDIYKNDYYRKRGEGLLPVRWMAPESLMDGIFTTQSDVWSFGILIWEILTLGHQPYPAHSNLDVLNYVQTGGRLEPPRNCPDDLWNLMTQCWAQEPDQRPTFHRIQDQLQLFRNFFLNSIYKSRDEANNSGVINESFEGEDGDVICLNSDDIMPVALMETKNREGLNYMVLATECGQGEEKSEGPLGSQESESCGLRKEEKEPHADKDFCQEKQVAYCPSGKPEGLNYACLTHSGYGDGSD
Chain of SRMS (human) (Q9H3Y6 whole entry, looked up): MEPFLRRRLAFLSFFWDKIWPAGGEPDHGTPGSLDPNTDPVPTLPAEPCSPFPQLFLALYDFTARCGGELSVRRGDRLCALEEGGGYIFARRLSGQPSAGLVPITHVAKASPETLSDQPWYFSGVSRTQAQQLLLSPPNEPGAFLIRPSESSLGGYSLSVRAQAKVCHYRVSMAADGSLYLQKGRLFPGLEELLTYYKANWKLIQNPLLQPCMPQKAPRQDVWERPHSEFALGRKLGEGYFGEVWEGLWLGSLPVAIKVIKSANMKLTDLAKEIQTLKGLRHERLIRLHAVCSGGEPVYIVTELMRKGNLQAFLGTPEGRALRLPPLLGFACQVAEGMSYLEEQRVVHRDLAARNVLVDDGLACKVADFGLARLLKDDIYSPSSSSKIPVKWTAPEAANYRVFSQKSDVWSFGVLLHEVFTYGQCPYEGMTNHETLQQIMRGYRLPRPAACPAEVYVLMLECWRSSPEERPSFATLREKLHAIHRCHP

Compound `Nc1cccc(-c2cc3c(Oc4cccc(O)c4)ncnc3[nH]2)c1` has a residual activity (CAMKK2 (human)) of 95.9%, a residual activity (ROS1 (human)) of 39.7% and a residual activity (CAMKK1 (human)) of 113%. For the same compound, the residual activity (HIPK1 (human)) was 82.7%, the residual activity (MAPK11 (human)) was 108% and the residual activity (CSNK1D (human)) was 96.8%. The residual activity (SGK2 (human)) was 96.2%, the residual activity (LYN (human)) was 11.1% and 21.4% and the residual activity (NEK9 (human)) was 103%. The residual activity (SLK (human)) was 64.1%, the residual activity (CAMK1D (human)) was 97.7% and the residual activity (ROCK2 (human)) was 94.5%. It also gave a residual activity (PDGFRB (human)) of 39.9%, a residual activity (EPHA2 (human)) of 48.2% and a residual activity (SRMS (human)) of 94.4%. For the same compound, the residual activity (LTK (human)) was 16.8%, the residual activity (PRKCA (human)) was 95.6% and the residual activity (PLK1 (human)) was 104%. It also gave a residual activity (PRKG2 (human)) of 108%, a residual activity (PRKCH (human)) of 90% and a residual activity (RPS6KB1 (human)) of 95.3%. The residual activity (MAPK14 (human)) was 98.1%, the residual activity (MST1R (human)) was 103% and the residual activity (TBK1 (human)) was 92.9%. For the same compound, the residual activity (PAK3 (human)) was 79.8%, the residual activity (CSNK2A1 (human)) was 96.8% and the residual activity (RPS6KA6 KD1 KD2 (human)) was 95.4%. It also gave a residual activity (PIM3 (human)) of 129%, a residual activity (SYK (human)) of 36.1% and a residual activity (NEK11 (human)) of 89.6%. For the same compound, the residual activity (GRK6 (human)) was 98%, the residual activity (CSNK1G2 (human)) was 84.9% and the residual activity (ULK2 (human)) was 97.5%. It also gave a residual activity (TGFBR1 (human)) of 101%, a residual activity (CAMK1G (human)) of 99% and a residual activity (TAOK3 (human)) of 93.5%. It also gave a residual activity (DYRK4 (human)) of 101%, a residual activity (PAK6 (human)) of 109% and a residual activity (LIMK1 (human)) of 22.1%. It also gave a residual activity (NEK1 (human)) of 92.3%, a residual activity [1] of 36.9% and a residual activity (FGFR3 (human)) of 67.9%.

With `CC[n+]1c(/C=C/N(C)c2ccccc2)n(-c2ccccc2)c2ccc(-c3nc4ccccc4s3)cc21` the residual activity (CAMKK2 (human)) was 115%, the residual activity (ROS1 (human)) was 99.1% and the residual activity (CAMKK1 (human)) was 115%. The residual activity (HIPK1 (human)) was 99.5%, the residual activity (MAPK11 (human)) was 101% and the residual activity (CSNK1D (human)) was 104%. The residual activity (SGK2 (human)) was 123%, the residual activity (LYN (human)) was 100% and 110% and the residual activity (NEK9 (human)) was 108%. It also gave a residual activity (SLK (human)) of 101%, a residual activity (CAMK1D (human)) of 99.7% and a residual activity (ROCK2 (human)) of 99.1%. For the same compound, the residual activity (PDGFRB (human)) was 102%, the residual activity (EPHA2 (human)) was 100% and the residual activity (SRMS (human)) was 93.7%. It also gave a residual activity (LTK (human)) of 90.7%, a residual activity (PRKCA (human)) of 77.7% and a residual activity (PLK1 (human)) of 110%. The residual activity (PRKG2 (human)) was 92.4%, the residual activity (PRKCH (human)) was 101% and the residual activity (RPS6KB1 (human)) was 96.8%. It also gave a residual activity (MAPK14 (human)) of 94.9%, a residual activity (MST1R (human)) of 94.4% and a residual activity (TBK1 (human)) of 95.7%. It also gave a residual activity (PAK3 (human)) of 109%, a residual activity (CSNK2A1 (human)) of 96.8% and a residual activity (RPS6KA6 KD1 KD2 (human)) of 96%. For the same compound, the residual activity (PIM3 (human)) was 98.8%, the residual activity (SYK (human)) was 104% and the residual activity (NEK11 (human)) was 91.6%. The residual activity (GRK6 (human)) was 98.9%, the residual activity (CSNK1G2 (human)) was 101% and the residual activity (ULK2 (human)) was 109%. The residual activity (TGFBR1 (human)) was 102%, the residual activity (CAMK1G (human)) was 101% and the residual activity (TAOK3 (human)) was 116%. For the same compound, the residual activity (DYRK4 (human)) was 107%, the residual activity (PAK6 (human)) was 95.5% and the residual activity (LIMK1 (human)) was 98.3%. It also gave a residual activity (NEK1 (human)) of 102%, a residual activity [1] of 88.5% and a residual activity (FGFR3 (human)) of 88.4%.

With `O=C1Nc2ccc(Cl)cc2/C1=C/c1cc(Cl)c(O)c(Cl)c1` the residual activity (CAMKK2 (human)) was 51.5%, the residual activity (ROS1 (human)) was 89.7% and the residual activity (CAMKK1 (human)) was 52.5%. For the same compound, the residual activity (HIPK1 (human)) was 102%, the residual activity (MAPK11 (human)) was 99.2% and the residual activity (CSNK1D (human)) was 89.6%. For the same compound, the residual activity (SGK2 (human)) was 89.2%, the residual activity (LYN (human)) was 81.6% and 87.5% and the residual activity (NEK9 (human)) was 103%. It also gave a residual activity (SLK (human)) of 95.3%, a residual activity (CAMK1D (human)) of 104% and a residual activity (ROCK2 (human)) of 90.6%. For the same compound, the residual activity (PDGFRB (human)) was 76.9%, the residual activity (EPHA2 (human)) was 95% and the residual activity (SRMS (human)) was 86.3%. The residual activity (LTK (human)) was 36.9%, the residual activity (PRKCA (human)) was 105% and the residual activity (PLK1 (human)) was 99.8%. For the same compound, the residual activity (PRKG2 (human)) was 97%, the residual activity (PRKCH (human)) was 90.8% and the residual activity (RPS6KB1 (human)) was 91%. The residual activity (MAPK14 (human)) was 74.6%, the residual activity (MST1R (human)) was 94.8% and the residual activity (TBK1 (human)) was 86.8%. The residual activity (PAK3 (human)) was 94.3%, the residual activity (CSNK2A1 (human)) was 26.5% and the residual activity (RPS6KA6 KD1 KD2 (human)) was 78.5%. The residual activity (PIM3 (human)) was 14.5%, the residual activity (SYK (human)) was 93.3% and the residual activity (NEK11 (human)) was 104%. For the same compound, the residual activity (GRK6 (human)) was 89.6%, the residual activity (CSNK1G2 (human)) was 83.5% and the residual activity (ULK2 (human)) was 101%. For the same compound, the residual activity (TGFBR1 (human)) was 102%, the residual activity (CAMK1G (human)) was 96.6% and the residual activity (TAOK3 (human)) was 50.6%. The residual activity (DYRK4 (human)) was 95.7%, the residual activity (PAK6 (human)) was 97% and the residual activity (LIMK1 (human)) was 83.7%. The residual activity (NEK1 (human)) was 81.5%, the residual activity [1] was 26.9% and the residual activity (FGFR3 (human)) was 94%.

Compound `N#CC(C#N)=C(N)/C(C#N)=C/c1ccc(O)cc1` has a residual activity (CAMKK2 (human)) of 91.6%, a residual activity (ROS1 (human)) of 97.1% and a residual activity (CAMKK1 (human)) of 104%. For the same compound, the residual activity (HIPK1 (human)) was 103%, the residual activity (MAPK11 (human)) was 100% and the residual activity (CSNK1D (human)) was 98.7%. For the same compound, the residual activity (SGK2 (human)) was 110%, the residual activity (LYN (human)) was 102% and 92.2% and the residual activity (NEK9 (human)) was 97.9%. It also gave a residual activity (SLK (human)) of 102%, a residual activity (CAMK1D (human)) of 98.9% and a residual activity (ROCK2 (human)) of 98.3%. For the same compound, the residual activity (PDGFRB (human)) was 98.8%, the residual activity (EPHA2 (human)) was 100% and the residual activity (SRMS (human)) was 107%. It also gave a residual activity (LTK (human)) of 92.5%, a residual activity (PRKCA (human)) of 97.4% and a residual activity (PLK1 (human)) of 60.8%. For the same compound, the residual activity (PRKG2 (human)) was 86.9%, the residual activity (PRKCH (human)) was 90.3% and the residual activity (RPS6KB1 (human)) was 89.5%. The residual activity (MAPK14 (human)) was 104%, the residual activity (MST1R (human)) was 102% and the residual activity (TBK1 (human)) was 91.1%. The residual activity (PAK3 (human)) was 98.4%, the residual activity (CSNK2A1 (human)) was 104% and the residual activity (RPS6KA6 KD1 KD2 (human)) was 104%. For the same compound, the residual activity (PIM3 (human)) was 91.3%, the residual activity (SYK (human)) was 101% and the residual activity (NEK11 (human)) was 97.2%. It also gave a residual activity (GRK6 (human)) of 107%, a residual activity (CSNK1G2 (human)) of 104% and a residual activity (ULK2 (human)) of 105%. For the same compound, the residual activity (TGFBR1 (human)) was 93%, the residual activity (CAMK1G (human)) was 104% and the residual activity (TAOK3 (human)) was 102%. The residual activity (DYRK4 (human)) was 107%, the residual activity (PAK6 (human)) was 97% and the residual activity (LIMK1 (human)) was 89.9%. It also gave a residual activity (NEK1 (human)) of 95.7%, a residual activity [1] of 97.4% and a residual activity (FGFR3 (human)) of 98.9%.

Source: the kinase profiling compilation of Christmann-Franck et al. (2016)
